Data from patent US11649229B2, “Amide compounds for treatment of immune and inflammatory disorders” (Achillion Pharmaceuticals, Inc., priority 2015, dated 2023).

Target: Human Factor D (Homo sapiens (Human), UniProt P00746)
Test: Human Factor D assay
Format: biochemical
Settings: Human Factor D 80 nM, substrate Z-L-Lys-SBzl, assay of Example 12
Procedure: Human Factor D (purified from human serum, Complement Technology, Inc.) at 80 nM final concentration is incubated with test compound at various concentrations for 5 minutes at room temperature in 50 mM Tris, 1M NaCl, pH 7.5. A synthetic substrate Z-L-Lys-SBzl and DTNB (Ellman's reagent) are added to final concentrations of 100 μM each. Absorbance at 405 nm (A405) is recorded at 30 second intervals for 30 minutes using a microplate spectrophotometer. IC50 values are calculated by nonlinear regression of complement Factor D reaction rates as a function of test compound concentration.
The assay of Example 12 was used to determine the IC50's of the compounds. Other standard Factor D inhibition assays are also available.

Chain of Human Factor D (P00746 26-253): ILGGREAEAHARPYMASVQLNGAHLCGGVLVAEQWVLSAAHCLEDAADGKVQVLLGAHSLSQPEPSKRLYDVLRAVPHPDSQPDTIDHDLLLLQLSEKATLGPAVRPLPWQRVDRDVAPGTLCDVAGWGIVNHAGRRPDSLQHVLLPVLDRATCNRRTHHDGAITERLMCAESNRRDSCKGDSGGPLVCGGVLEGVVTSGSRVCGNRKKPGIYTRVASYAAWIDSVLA

Question: Which IC50 does the source give for `Cc1cccc(NC(=O)[C@@H]2CCC(F)CCN2C(=O)Cn2cc(C(N)=O)c3cc(C(=O)NS(=O)(=O)C4CC4)ccc32)n1` (stereo partly drawn) [compound 8, N5-(cyclopropylsulfonyl)-1-(2-((2S)-5-fluoro-2-((6-methylpyridin-2-yl)carbamoyl)azepan-1-yl)-2-oxoethyl)-1H-indole-3,5-dicarboxamide] here?
Answer: Its IC50 is > 10 µM.
